Results on one compound are retold here after US20240366521A1, “NANOPARTICLES AND METHODS OF USE” (Qana Therapeutics Inc., priority 2023, published 2024).

SMILES strings stand for the structures.

The nature of this series: Solvent screen of MMAE. It is filed as physicochemical. Conditions: acetone, ethanol, and isopropanol. The method, then:
A solvent screen of MMAE was conducted.

On to `CCC(C)C(C(CC(=O)N1CCCC1C(OC)C(C)C(=O)NC(C)C(O)c1ccccc1)OC)N(C)C(=O)C(NC(=O)C(NC)C(C)C)C(C)C` (stereo not shown) [MMAE, monomethyl auristatin E], for which the “solubility of MMAE in solvent” value is “good solubility”.
